Here are results for two compounds from patent US20080131404A1, “Hepatocytes” (priority 2004, published 2008).

One data set has as its system human foetal liver cells. The data set can be described thus: Neomycin titre and selection. The class given is cell-based. Particulars: 250 μg/ml neomycin, 2 week selection. The method, then: To determine what concentration of neomycin to use on the liver cells exposed to the virus, in order to eliminate all or the majority of non-infected cells, but not the infected cells, a titre of neomycin was set up. Human foetal liver cells from a dissociated liver that had never been exposed to the immortalising virus were plated in 6-well plates and exposed to neomycin concentrations ranging from 0-900 μg/ml for 12 days in triplicate. 100, 500 and 2000 cells/well were plate and the cells were left for 2 days before the neomycin was added. The growth and proliferation of the cells were studied visually with the TMS-F microscope (Nikon). Based on the result from the neomycin titre a concentration of 250 μg/ml neomycin was used for 2 weeks on the liver cells exposed to the immortalising virus.

The test system of data set [1] is clone 20 hepatocytes (c-myc-ER infected human foetal hepatocytes). In words: Telomerase assay (Telo TAGGG telomerase PCR ELISA). Conditions: hepatocytes cultured in 0.5-10 μM 4-OHT. The class given is cell-based. The method, then:
Cells from clone 20, p2 were cultured in T25 flasks for 1 week in media with 0, 100 nM, 1 μM and 10 μM 4-OHT for 1 week. The cells had been in culture for 2 months. Uninfected hepatocytes from the same liver were also used for the assay. These cells had been in culture for 3 weeks. The assay was performed according to the instructions for the Telo TAGGG telomerase PCR ELISAPWs (Roche). The plate reader GENios (Tecan) was used to analyse the results. Some of the fluorescence values were too high for the plate readers' spectra so a change to the protocol was done and the fluorescence was measured from only ⅓ of the final volume.
(ELISA stands for enzyme-linked immunosorbent assay.)

Data set [2] deals with LIV0A07. In words: Cyquant cell proliferation assay. The class given is cell-based, human. The method, then:
Growth rate was assessed using the Cyquant cell proliferation assay (Molecular Probes, Paisley, UK). Cells were grown in multiwell plates or 25 cm^2 flasks and experiments were performed according to the manufacturers instructions.
Growth rate was assessed using the Cyquant cell proliferation assay to compare growth of LIV0A07 over 5 days in […] 4-OHT.

In data set [3] the test system is LIV0A07. In words: TaqMan analysis of CYP3A4/CYP3A7 mRNA in LIV0A07. Type of data set: cell-based, human. The method, then:
(§1) A standard TaqMan protocol was following using a 96 well optical reaction plate (Applied Biosystems, CA, USA). All probes and primers were supplied by MWG-Biotech, Ebersberg, Germany (see table 3). All probes were labelled with 3′TAMRA and 5′FAM. The reaction plate was sealed with optical adhesive cover (Applied Biosystems, CA, USA) and centrifuged for 1 min at 500 g before loading onto the TaqMan machine (ABI prism 7000 sequence detection system) and results analysed with ABI prism 7000 SDS software.

The next data set has as its system HuH7 cells. In words: TaqMan analysis of CYP3A4 mRNA in HuH7. The class given is cell-based, human. Conditions: HuH7 samples. The method, then: as §1
(Real-time PCR tracks product formation cycle by cycle.)

The test system of data set [4] is LIV0A07. In words: Immunocytochemistry for hepatocyte markers albumin and CK-18. Particulars: grown in the absence of 4-OHT for 48 h. The class given is cell-based, human. The method, then:
Immunocytochemistry was used for early assessment of the cell line. […] The human hepatoma cell line HuH7 was used as a positive control for liver markers, while a myc-immortalised neural stem cell line (197VM) cells were used as a negative control.
All staining was performed in multiwell plates using the following method. Medium was aspirated and cells washed once with PBS prior to fixing using 4% paraformaldehyde for 15 min at room temperature. Cells were then washed three times in PBS, before being permeabilised for 15 min using 0.1% triton x-100 in PBS. Cells were washed with PBS once more then blocked for 1 h in 10% normal goat serum (NGS) (Vector Laboratories, CA, USA) in PBS. Primary antibodies were applied in 1% NGS/PBS for 1 h at room temperature. Cells were washed three times in PBS then exposed to the secondary antibody in 1% NGS/PBS for 1 h at room temperature. Cells were washed three times in PBS and Hoechst, a dye that stains DNA, was added for 2 min at room temperature (1:25,000 in PBS). Cells were washed a further three times in PBS and left in the final wash. Analysis was performed using a fluorescence microscope (Leica DMRA). The secondary antibody excited at a wavelength of ˜488 nm and gave emission at ˜525 nm (green emission) while Hoechst excited at ˜350 nm and emitted at ˜425 nm (blue emission).

On to `NC[C@@H]1O[C@H](O[C@H]2[C@@H](O)[C@H](O[C@@H]3[C@@H](O)[C@H](N)C[C@H](N)[C@H]3O[C@H]3O[C@H](CN)[C@@H](O)[C@H](O)[C@H]3N)O[C@@H]2CO)[C@H](N)[C@@H](O)[C@@H]1O` [neomycin, Neomycin], for which the “survival of noninfected cells during selection” value in the data set with human foetal liver cells is on record as “majority of the noninfected cells died”.

On to 4-hydroxytamoxifen [4-OHT], for which the telomerase expression entry in data set [1] was “up regulates telomerase expression”. In addition, the proliferation result in the data set on LIV0A07 [2] (0.1 mM 4-OHT, 5 days) is given as “Little proliferation”; in the data set on LIV0A07 [2] (0.5 and 1.0 mM 4-OHT, 5 days), “expanded to a greater extent”. In addition, the “toxicity to the cells” value with LIV0A07 [2] (1.0 mM 4-OHT, initial slow proliferation after seeding) is “may be slightly toxic”. Moreover, the “optimum concentration for 4-OHT dependent growth” value with LIV0A07 [2] (in the medium, 5 days) lay within 0.5 to 1.0 mM. Moreover, the “CYP3A7 mRNA level on differentiation” value in the data set with LIV0A07 [3] (absence of 4-OHT) is reported as “did not display the same differentiation induced increase”. For the same compound, the “CYP3A4 mRNA level, differentiated vs undifferentiated cultures” value with LIV0A07 [3] (grown in the absence of 4-OHT for 72 h compared to cultures with 4-OHT) is “approximately 15 fold”. Besides, in the data set with HuH7 cells, the “effect of 4-OHT on CYP3A4 mRNA expression” value was “no effect”. In addition, in the data set with LIV0A07 [4], the “albumin and CK-18 staining, differentiated cultures” value is listed as “slightly stronger”.
